“And” between values parts separate entries of the source, which are not always exact repeats. Equal values may be shown once. Read-outs that look alike come from different tables or passages of the source.
Columns and labels:
[1] = system: H1N1
[2] = format: in vivo, human; details: adults; age, sex, body size, food, mild-to-moderate renal or mild hepatic impairment
Experimental: A population pharmacokinetic (popPK) analysis for Compound A exposure was conducted using 4202 NHC plasma concentrations collected in 1207 individuals from a phase 1 study in healthy participants, a phase 2a study in non-hospitalized participants with COVID-19, a Phase 2 study in hospitalized participants with COVID-19, and a Phase 2/3 study in non-hospitalized participants with COVID-19. All studies were randomized, double-blind, placebo-controlled studies of safety, tolerability, and PK of Compound A after oral administration.

[3] = system: SARS-CoV-2; format: in vivo
[4] = system: infectious SARS-CoV-2 virus; format: in vivo
[5] = system: SARS-CoV-2
[6] = Phase 1 study
[7] = system: SARS-CoV-2; remark: listed apart in the source
[8] = system: SARS-CoV-2 RNA; assay: Phase 2a trial: RT-PCR for SARS-CoV-2 RNA in nasopharyngeal swabs (Example 2); format: in vivo
[9] = MITT population, through day 29
[10] = safety population, all postbaseline visits through day 29
[11] = subgroup hospitalized after randomization, vs placebo

CC(C)C(=O)OC[C@H]1O[C@@H](n2ccc(NO)nc2=O)[C@H](O)[C@@H]1O [Compound A, {(2R,3S,4R,5R)-3,4-dihydroxy-5-[4-(hydroxyimino)-2-oxo-3,4-dihydropyrimidin-1 (2H)-yl]oxolan-2-yl}methyl 2-methylpropanoate]
number of doses sufficient to demonstrate efficacy ([1]; administered every 12 hours, ferret model of influenza): Three | dose demonstrating efficacy against H1N1 ([1]; ferrets): 7 mg/kg BID | need for dose adjustment [2]: without dose adjustment | proportion of participants who had a COVID-19-related acute care visit [3, 9]: 6.6% | proportion of participants who had an acute care visit [3, 9]: 7.2% | RRR, COVID-19-related acute care visit ([3]; MITT population, vs placebo): 33.8% | RRR, acute care visit ([3]; MITT population, vs placebo): 32.1% | RRR, all respiratory interventions ([3]; MITT population, vs placebo): 34.3% | RRR, high-flow heated and humidified device ([3]; MITT population, vs placebo): 26.1% | RRR, invasive mechanical ventilation ([3]; MITT population, vs placebo): 64.1% | RRR, noninvasive mechanical ventilation ([3]; MITT population, vs placebo): 75.4% | RRR, oxygen therapy with conventional oxygen ([3]; MITT population, vs placebo): 23.6% | mean change from baseline in CRP values versus placebo [3, 10]: earlier and larger reductions | mean change from baseline in SpO2 values versus placebo [3, 10]: earlier and larger improvements | median time to hospital discharge ([3]; subgroup hospitalized after randomization): 9 days | RRR, all respiratory interventions [3, 11]: 21.3% | RRR, conventional oxygen [3, 11]: 12.8% | RRR, high-flow heated and humidified device [3, 11]: −4.7% | RRR, invasive mechanical ventilation [3, 11]: 49.2% | RRR, noninvasive mechanical ventilation [3, 11]: 65.1% | Percentage of participants positive for infectious SARS-CoV-2 virus ([4]; 200 mg twice daily 5 days, Day 1): (50.0) % | Percentage of participants positive for infectious SARS-CoV-2 virus ([4]; 200 mg twice daily 5 days, Day 3): (18.2) % | Percentage of participants positive for infectious SARS-CoV-2 virus ([4]; 200 mg twice daily 5 days, Day 5): (4.5) % | Percentage of participants positive for infectious SARS-CoV-2 virus ([4]; 400 mg twice daily 5 days, Day 1): (41.9) % | Percentage of participants positive for infectious SARS-CoV-2 virus ([4]; 400 mg twice daily 5 days, Day 3): (11.6) % | Percentage of participants positive for infectious SARS-CoV-2 virus ([4]; 800 mg twice daily 5 days, Day 1): (38.5) % | tolerability ([5]; 5-day course up to 800 mg twice daily): well tolerated | Median time to sustained recovery ([5]; all arms, hospitalized): 9 days | day 29 recovery rates ([5]; all arms, hospitalized): 81.5%-85.2% | hematologic toxicity based on prespecified adverse events ([5]; all doses): no evidence of hematologic toxicity | clinical benefit ([5]; hospitalized patients with COVID-19): clinical benefit was not observed | participants with undetectable SARS-CoV-2 RNA at day 10, more than placebo ([5]; participants with ≤5 days since sign/symptom onset): 14.3%-36.4% | hematological laboratory tests [6]: no clinically significant abnormalities | liver parameters ([6]; any dose): No clinically significant abnormalities in liver parameters | serum lipase ([6]; at least 3 days after last dose, not dose related): Transient elevations of serum lipase | participants with serious adverse events resulting in hospitalization (400-mg group): 3.2% | participants with serious adverse events resulting in hospitalization (800-mg group): 1.8% | incidence of treatment-associated adverse events (800-mg group compared with the other groups): lowest | adverse events that led to discontinuation (Compound A groups combined): 1.4% | adverse events (all doses, similar to placebo): few, and mainly low-grade | Grade 3 or higher adverse events (combined Compound A groups): 5.0% | hematology or clinical chemistry data (during the study): no dose-related trends | hematological, pancreatic, or hepatic parameters ([7]; Part 1, as a function of dose or treatment): no clinically meaningful abnormalities | dose-limiting toxicity ([7]; highest dose (800 mg), eDMC review of IA2 data): no dose-limiting toxicity was observed | SARS-CoV-2 VL compared with placebo ([7]; in vivo): reduces the SARS-CoV-2 VL compared with placebo | tolerability ([7]; non-hospitalized participants in Part 1): well-tolerated | Change from baseline in SARS-CoV-2 viral load, least squares mean ([8]; 200 mg, Day 3): −0.783 log10 copies/ml | Difference in least squares mean viral load change vs placebo ([8]; 200 mg, Day 3): 0.064 log10 copies/ml | Change from baseline in SARS-CoV-2 viral load, least squares mean ([8]; 200 mg, Day 5): −1.471 log10 copies/ml | Difference in least squares mean viral load change vs placebo ([8]; 200 mg, Day 5): −0.150 log10 copies/ml | Change from baseline in SARS-CoV-2 viral load, least squares mean ([8]; 200 mg, Day 7): −2.028 log10 copies/ml | Difference in least squares mean viral load change vs placebo ([8]; 200 mg, Day 7): −0.076 log10 copies/ml | Change from baseline in SARS-CoV-2 viral load, least squares mean ([8]; 200 mg, Day 14): −2.884 log10 copies/ml | Difference in least squares mean viral load change vs placebo ([8]; 200 mg, Day 14): −0.019 log10 copies/ml | Change from baseline in SARS-CoV-2 viral load, least squares mean ([8]; 400 mg, Day 3): −0.941 log10 copies/ml | Difference in least squares mean viral load change vs placebo ([8]; 400 mg, Day 3): −0.094 log10 copies/ml | Change from baseline in SARS-CoV-2 viral load, least squares mean ([8]; 400 mg, Day 5): −1.754 log10 copies/ml | Difference in least squares mean viral load change vs placebo ([8]; 400 mg, Day 5): −0.434 log10 copies/ml | Change from baseline in SARS-CoV-2 viral load, least squares mean ([8]; 400 mg, Day 7): −2.263 log10 copies/ml | Difference in least squares mean viral load change vs placebo ([8]; 400 mg, Day 7): −0.311 log10 copies/ml | Change from baseline in SARS-CoV-2 viral load, least squares mean ([8]; 400 mg, Day 14): −2.840 log10 copies/ml | Difference in least squares mean viral load change vs placebo ([8]; 400 mg, Day 14): 0.026 log10 copies/ml | Median time to response (SARS-CoV-2 viral RNA negativity) ([8]; 800 mg twice daily 5 days): 14 days and 14.0 days | Change from baseline in SARS-CoV-2 viral load, least squares mean ([8]; 800 mg, Day 3): −1.050 log10 copies/ml | Difference in least squares mean viral load change vs placebo ([8]; 800 mg, Day 3): −0.203 log10 copies/ml | Change from baseline in SARS-CoV-2 viral load, least squares mean ([8]; 800 mg, Day 5): −1.867 log10 copies/ml
